Reference: ChEMBL document CHEMBL5042486, “Discovery and Preclinical Characterization of BIIB091, a Reversible, Selective BTK Inhibitor for the Treatment of Multiple Sclerosis” (J Med Chem, 2022)
The source made the active and inactive calls. The calls are words filed in the database; no cut-off is given here.

Key:
Liver [1] = assay: Drugmetabolism in mouse liver microsomes assessed as metabolite formation; assay type: ADME, Microsome
[2] = Kinetic aqueous solubility of the compound in pH 6.8; assay type: physicochemical; details: read-out: Kinetic_solubility
[3] = Protein binding in human plasma assessed as unbound fraction at 2 uM by rapid equilibrium dialysis method; assay type: ADME, cell-free
[4] = Lipophilicity, logD of the compound at pH 7.6 by shake flask assay; assay type: physicochemical; details: buffer
[5] = Clearance in Sprague-Dawley rat assessed as hepatic blood flow at 1 mg/kg, iv; assay type: ADME, organism-based, Liver; details: in vivo
[6] = Clearance in Beagle dog assessed as hepatic blood flow at 1 mg/kg, iv; assay type: ADME, organism-based, Canis lupus familiaris, Liver; details: in vivo
Aurora kinase A = Aurora kinase A (Homo sapiens, UniProt O14965); assay: Binding affinity to wild-type human partial length AURKA (E122 to K401 residues) expressed in mammalian expression system by Kinomescan method
[7] = molecular target: Cyclin-dependent kinase-like 2 (Homo sapiens, UniProt Q92772); assay: Binding affinity to wild-type human partial length CDKL2 (M1 to D327 residues) expressed in bacterial expression system by Kinomescan method
[8] = molecular target: Dual specificity mitogen-activated protein kinase kinase 2 (Homo sapiens, UniProt P36507); assay: Binding affinity to wild-type human full length MEK2 (M1 to V400 residues) expressed in mammalian expression system by Kinomescan method
[9] = molecular target: Phosphatidylinositol 4-phosphate 5-kinase type-1 gamma (Homo sapiens, UniProt O60331); assay: Binding affinity to wild-type human partial length PIP5K1C (M1 to T668 residues) expressed in mammalian expression system by Kinomescan method
[10] = molecular target: Tyrosine-protein kinase Tec (Homo sapiens, UniProt P42680); assay: Binding affinity to wild-type human partial length TEC (L341 to D620 residues) expressed in bacterial expression system by Kinomescan method
[11] = Clearance in cynomolgus monkey assessed as hepatic blood flow at 1 mg/kg, iv; assay type: ADME, organism-based, Macaca fascicularis, Liver; details: in vivo
[12] = Volume of distribution at steady state in Spargue-Dawley rat at 5 mg/kg, po; assay type: ADME, organism-based; details: in vivo
[13] = Volume of distribution at steady state in cynomolgus monkey at 5 mg/kg, po; assay type: ADME, organism-based, Macaca fascicularis; details: in vivo
[14] = molecular target: Voltage-dependent L-type calcium channel subunit alpha-1C (Homo sapiens, UniProt Q13936); assay: Inhibition of human Cav1.2; assay type: toxicity
[15] = Hepatotoxicity in rat primary cells assessed as change in GSH level for 10 days; assay type: toxicity, cell-based, Hepatocyte; details: hepatocytes, 240 h, time 10 day
[16] = Hepatotoxicity in rat primary cells assessed as change in albumin level for 10 days; assay type: toxicity, cell-based, Hepatocyte; details: hepatocytes, 240 h, time 10 day
[17] = molecular target: Sodium channel protein type 5 subunit alpha (Homo sapiens, UniProt Q14524); assay: Inhibition of phasic human Nav1.5; assay type: toxicity
[18] = In vivo toxicity in Sprague-Dawley rat assessed as compound related toxicity at 500 mg/kg after 28 days; assay type: organism-based; details: 672 h, time 28 day
[19] = In vivo toxicity in Sprague-Dawley rat assessed as compound related pathology findings at 500 mg/kg after 28 days; assay type: organism-based; details: 672 h, time 28 day
Cynomolgus monkey [20] = assay: In vivo toxicity in cynomolgus monkey assessed as compound related toxicity at 250 mg/kg after 28 days; assay type: organism-based, Macaca fascicularis; details: 672 h, time 28 day
Cynomolgus monkey [21] = assay: In vivo toxicity in cynomolgus monkey assessed as compound related pathology at 250 mg/kg after 28 days; assay type: organism-based, Macaca fascicularis; details: 672 h, time 28 day
Cynomolgus monkey [22] = assay: In vivo toxicity in cynomolgus monkey assessed as compound related ECG findings at 250 mg/kg after 28 days; assay type: organism-based, Macaca fascicularis; details: 672 h, time 28 day
[23] = Dissociation constant, pKa of the compound; assay type: physicochemical
[24] = molecular target: Early activation antigen CD69 (Homo sapiens, UniProt Q07108); assay: Inhibition of CD69 (unknown origin) assessed as reduction in BCR mediated B cell activation; assay type: cell-based
CD63 antigen = CD63 antigen (Homo sapiens, UniProt P08962); assay: Inhibition of CD63 (unknown origin) assessed as FcepsilonR induced basophil activation
[25] = molecular target: Toll-like receptor 9 (Homo sapiens) (UniProt Q9NR96); assay: Inhibition of TLR9 in CpG-B stimulated human PBMC at >10 uM; assay type: cell-based; details: dose microM >10
[26] = In vivo inhibition of BTK-dependent B cell activation in C57BL/6 mouse immunized with NP-Ficoll assessed as reduction in anti-NP IgM antibody titer at 30 mg/kg, po BID dosed for 10 days; assay type: functional; design: scale not given: the % may be the effect or the level left; details: time 10 day
[27] = In vivo inhibition of BTK-dependent B cell activation in C57BL/6 mouse immunized with NP-Ficoll assessed as reduction in anti-NP IgM antibody titer at 10 mg/kg, po BID dosed for 10 days; assay type: functional; design: scale not given: the % may be the effect or the level left; details: time 10 day
[28] = In vivo inhibition of BTK-dependent B cell activation in C57BL/6 mouse immunized with NP-Ficoll assessed as reduction in anti-NP IgM antibody titer at 1 mg/kg, po BID dosed for 10 days; assay type: functional; design: scale not given: the % may be the effect or the level left; details: time 10 day
[29] = In vivo inhibition of BTK-dependent B cell activation in C57BL/6 mouse immunized with NP-Ficoll assessed as reduction in anti-NP IgM antibody titer at 0.3 mg/kg, po BID dosed for 10 days; assay type: functional; design: scale not given: the % may be the effect or the level left; details: time 10 day
[30] = Apparent permeability across apical to basolateral side in human Caco2 cells; assay type: ADME, cell-based; details: Caco-2
[31] = In vivo toxicity in Sprague-Dawley rat assessed as NOAEL after 28 days; assay type: organism-based; details: time 28 day
[32] = Apparent permeability across basolateral to apical side in human Caco2 cells; assay type: ADME, cell-based; details: Caco-2
Bile salt export pump = Bile salt export pump (Homo sapiens, UniProt O95342); assay: Inhibition of BSEP (unknown origin) at >30 uM
[33] = molecular target: Broad substrate specificity ATP-binding cassette transporter ABCG2 (Homo sapiens, UniProt Q9UNQ0); assay: Inhibition of BCRP (unknown origin) at >30 uM
[34] = Protein binding in human plasma assessed as unbound fraction; assay type: ADME, cell-free
[35] = Protein binding in monkey plasma assessed as unbound fraction; assay type: ADME, cell-free, Macaca mulatta; details: rhesus monkey
Cytochrome P450 3A4 = Cytochrome P450 3A4 (Homo sapiens, UniProt P08684); assay: Inhibition of CYP3A4 in human liver microsomes at 10 to 50 uM; assay type: ADME; details: dose 10-50 µM
Cytochrome P450 2D6 = Cytochrome P450 2D6 (Homo sapiens, UniProt P10635); assay: Inhibition of CYP2D6 in human liver microsomes at 10 to 50 uM; assay type: ADME; details: dose 10-50 µM
Cytochrome P450 2C19 = Cytochrome P450 2C19 (Homo sapiens, UniProt P33261); assay: Inhibition of CYP2C19 in human liver microsomes at 10 to 50 uM; assay type: ADME; details: dose 10-50 µM
Cytochrome P450 1A2 = Cytochrome P450 1A2 (Homo sapiens, UniProt P05177); assay: Inhibition of CYP1A2 in human liver microsomes at 10 to 50 uM; assay type: ADME; details: dose 10-50 µM
[36] = Protein binding in rat plasma assessed as unbound fraction; assay type: ADME, cell-free
[37] = In vivo toxicity in cynomolgus monkey assessed as NOAEL after 28 days; assay type: organism-based, Macaca fascicularis; details: time 28 day
Liver [38] = assay: Drugmetabolism in rat liver microsomes assessed as metabolite formation; assay type: ADME, Microsome
Liver [39] = assay: Drugmetabolism in dog liver microsomes assessed as metabolite formation; assay type: ADME, Canis lupus familiaris, Microsome
[40] = Drugmetabolism in cynomolgus monkey liver microsomes assessed as metabolite formation; assay type: ADME, Macaca fascicularis, Microsome
[41] = Drugmetabolism in dog hepatocytes assessed as metabolite formation; assay type: ADME, cell-based, Canis lupus familiaris, Hepatocyte
[42] = Drugmetabolism in cynomolgus monkey hepatocytes assessed as metabolite formation; assay type: ADME, cell-based, Macaca fascicularis, Hepatocyte

Sequence of Dual specificity mitogen-activated protein kinase kinase 2 (P36507 whole entry, the tested form may be a part): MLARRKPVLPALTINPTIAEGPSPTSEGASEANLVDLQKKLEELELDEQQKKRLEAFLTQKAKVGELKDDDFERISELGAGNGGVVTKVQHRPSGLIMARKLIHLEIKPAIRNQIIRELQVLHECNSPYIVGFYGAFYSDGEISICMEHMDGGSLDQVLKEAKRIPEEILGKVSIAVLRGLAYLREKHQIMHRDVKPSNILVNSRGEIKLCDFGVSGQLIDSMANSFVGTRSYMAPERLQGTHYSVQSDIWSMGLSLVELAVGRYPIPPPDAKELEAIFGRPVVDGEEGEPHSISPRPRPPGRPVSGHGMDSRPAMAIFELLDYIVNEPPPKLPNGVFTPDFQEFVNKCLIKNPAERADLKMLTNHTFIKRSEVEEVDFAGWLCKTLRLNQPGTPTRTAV
Sequence of Cytochrome P450 2C19 (P33261 whole entry): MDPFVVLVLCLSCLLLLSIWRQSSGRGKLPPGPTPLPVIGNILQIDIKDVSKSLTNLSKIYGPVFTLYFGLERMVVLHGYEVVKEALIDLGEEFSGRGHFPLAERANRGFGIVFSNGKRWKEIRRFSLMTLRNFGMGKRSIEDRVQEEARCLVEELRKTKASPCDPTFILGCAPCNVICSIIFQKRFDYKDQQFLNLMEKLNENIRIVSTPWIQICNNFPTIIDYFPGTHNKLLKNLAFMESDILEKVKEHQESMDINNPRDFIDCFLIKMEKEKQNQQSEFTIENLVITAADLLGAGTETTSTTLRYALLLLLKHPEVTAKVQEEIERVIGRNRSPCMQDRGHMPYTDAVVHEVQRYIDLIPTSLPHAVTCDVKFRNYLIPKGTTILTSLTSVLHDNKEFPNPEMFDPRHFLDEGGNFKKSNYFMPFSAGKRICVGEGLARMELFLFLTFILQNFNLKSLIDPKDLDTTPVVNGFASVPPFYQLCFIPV
Sequence of Cytochrome P450 2D6 (P10635 whole entry): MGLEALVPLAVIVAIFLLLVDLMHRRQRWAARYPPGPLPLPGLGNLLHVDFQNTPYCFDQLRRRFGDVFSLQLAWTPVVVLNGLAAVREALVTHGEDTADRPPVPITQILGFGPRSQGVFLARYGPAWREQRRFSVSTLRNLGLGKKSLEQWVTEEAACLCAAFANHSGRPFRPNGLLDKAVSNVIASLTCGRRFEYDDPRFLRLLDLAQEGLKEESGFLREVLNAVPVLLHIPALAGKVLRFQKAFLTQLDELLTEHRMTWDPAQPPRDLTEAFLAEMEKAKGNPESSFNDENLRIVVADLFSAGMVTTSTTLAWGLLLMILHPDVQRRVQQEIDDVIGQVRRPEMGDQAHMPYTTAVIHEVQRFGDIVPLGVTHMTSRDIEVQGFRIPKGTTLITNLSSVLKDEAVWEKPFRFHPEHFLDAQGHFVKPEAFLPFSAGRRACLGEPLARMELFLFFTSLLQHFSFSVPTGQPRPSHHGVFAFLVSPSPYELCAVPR
Sequence of Broad substrate specificity ATP-binding cassette transporter ABCG2 (Q9UNQ0 whole entry): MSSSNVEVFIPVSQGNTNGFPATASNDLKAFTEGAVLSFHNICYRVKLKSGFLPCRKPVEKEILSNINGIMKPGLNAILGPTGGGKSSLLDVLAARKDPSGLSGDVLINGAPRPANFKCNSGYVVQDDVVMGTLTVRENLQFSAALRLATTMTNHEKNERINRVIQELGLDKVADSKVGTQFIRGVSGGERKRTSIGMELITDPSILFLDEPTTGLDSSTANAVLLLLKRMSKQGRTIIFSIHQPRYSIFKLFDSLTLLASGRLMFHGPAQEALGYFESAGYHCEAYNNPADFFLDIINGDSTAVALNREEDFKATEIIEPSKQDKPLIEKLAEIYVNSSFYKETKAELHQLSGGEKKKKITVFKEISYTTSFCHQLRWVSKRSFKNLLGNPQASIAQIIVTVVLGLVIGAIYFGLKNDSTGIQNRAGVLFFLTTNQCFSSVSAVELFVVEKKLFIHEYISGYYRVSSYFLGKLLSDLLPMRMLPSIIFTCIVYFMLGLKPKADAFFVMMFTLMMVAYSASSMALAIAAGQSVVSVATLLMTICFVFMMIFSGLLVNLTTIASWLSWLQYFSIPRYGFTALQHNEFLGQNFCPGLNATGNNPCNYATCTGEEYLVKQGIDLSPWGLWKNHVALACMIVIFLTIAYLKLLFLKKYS
Sequence of CD63 antigen (P08962 whole entry): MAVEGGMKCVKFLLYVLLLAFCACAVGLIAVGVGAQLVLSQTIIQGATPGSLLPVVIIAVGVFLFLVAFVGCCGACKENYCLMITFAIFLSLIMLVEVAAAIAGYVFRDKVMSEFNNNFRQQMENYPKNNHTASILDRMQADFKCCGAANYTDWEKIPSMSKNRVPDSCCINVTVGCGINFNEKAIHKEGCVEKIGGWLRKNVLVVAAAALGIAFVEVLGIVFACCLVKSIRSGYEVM
Sequence of Cytochrome P450 1A2 (P05177 whole entry): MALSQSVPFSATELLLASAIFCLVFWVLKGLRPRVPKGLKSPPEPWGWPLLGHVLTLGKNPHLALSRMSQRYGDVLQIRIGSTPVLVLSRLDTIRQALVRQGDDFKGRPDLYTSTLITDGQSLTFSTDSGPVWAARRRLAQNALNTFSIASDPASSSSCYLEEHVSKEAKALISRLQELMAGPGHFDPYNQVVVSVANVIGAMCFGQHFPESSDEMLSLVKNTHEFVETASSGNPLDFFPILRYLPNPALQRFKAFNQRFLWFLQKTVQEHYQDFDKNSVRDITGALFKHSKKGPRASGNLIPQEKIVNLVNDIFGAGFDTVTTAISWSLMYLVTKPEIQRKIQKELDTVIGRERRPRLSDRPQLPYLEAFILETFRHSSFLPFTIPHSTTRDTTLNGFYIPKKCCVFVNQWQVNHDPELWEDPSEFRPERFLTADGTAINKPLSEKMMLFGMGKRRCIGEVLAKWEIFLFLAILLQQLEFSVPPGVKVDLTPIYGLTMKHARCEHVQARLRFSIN
Sequence of Cyclin-dependent kinase-like 2 (Q92772 whole entry, the tested form may be a part): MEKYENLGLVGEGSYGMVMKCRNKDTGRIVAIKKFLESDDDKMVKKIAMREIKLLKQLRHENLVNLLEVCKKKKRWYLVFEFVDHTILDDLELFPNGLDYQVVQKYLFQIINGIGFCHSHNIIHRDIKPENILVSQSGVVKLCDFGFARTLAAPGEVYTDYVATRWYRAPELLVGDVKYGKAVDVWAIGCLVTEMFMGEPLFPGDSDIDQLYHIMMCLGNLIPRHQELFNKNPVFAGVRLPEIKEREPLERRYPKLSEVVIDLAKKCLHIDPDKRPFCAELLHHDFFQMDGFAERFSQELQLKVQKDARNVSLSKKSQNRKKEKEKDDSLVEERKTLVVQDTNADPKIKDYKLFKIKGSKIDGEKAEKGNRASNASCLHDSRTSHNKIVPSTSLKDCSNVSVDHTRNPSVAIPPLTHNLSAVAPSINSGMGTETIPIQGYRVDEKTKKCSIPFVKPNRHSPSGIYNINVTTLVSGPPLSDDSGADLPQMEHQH
Sequence of Bile salt export pump (O95342 whole entry): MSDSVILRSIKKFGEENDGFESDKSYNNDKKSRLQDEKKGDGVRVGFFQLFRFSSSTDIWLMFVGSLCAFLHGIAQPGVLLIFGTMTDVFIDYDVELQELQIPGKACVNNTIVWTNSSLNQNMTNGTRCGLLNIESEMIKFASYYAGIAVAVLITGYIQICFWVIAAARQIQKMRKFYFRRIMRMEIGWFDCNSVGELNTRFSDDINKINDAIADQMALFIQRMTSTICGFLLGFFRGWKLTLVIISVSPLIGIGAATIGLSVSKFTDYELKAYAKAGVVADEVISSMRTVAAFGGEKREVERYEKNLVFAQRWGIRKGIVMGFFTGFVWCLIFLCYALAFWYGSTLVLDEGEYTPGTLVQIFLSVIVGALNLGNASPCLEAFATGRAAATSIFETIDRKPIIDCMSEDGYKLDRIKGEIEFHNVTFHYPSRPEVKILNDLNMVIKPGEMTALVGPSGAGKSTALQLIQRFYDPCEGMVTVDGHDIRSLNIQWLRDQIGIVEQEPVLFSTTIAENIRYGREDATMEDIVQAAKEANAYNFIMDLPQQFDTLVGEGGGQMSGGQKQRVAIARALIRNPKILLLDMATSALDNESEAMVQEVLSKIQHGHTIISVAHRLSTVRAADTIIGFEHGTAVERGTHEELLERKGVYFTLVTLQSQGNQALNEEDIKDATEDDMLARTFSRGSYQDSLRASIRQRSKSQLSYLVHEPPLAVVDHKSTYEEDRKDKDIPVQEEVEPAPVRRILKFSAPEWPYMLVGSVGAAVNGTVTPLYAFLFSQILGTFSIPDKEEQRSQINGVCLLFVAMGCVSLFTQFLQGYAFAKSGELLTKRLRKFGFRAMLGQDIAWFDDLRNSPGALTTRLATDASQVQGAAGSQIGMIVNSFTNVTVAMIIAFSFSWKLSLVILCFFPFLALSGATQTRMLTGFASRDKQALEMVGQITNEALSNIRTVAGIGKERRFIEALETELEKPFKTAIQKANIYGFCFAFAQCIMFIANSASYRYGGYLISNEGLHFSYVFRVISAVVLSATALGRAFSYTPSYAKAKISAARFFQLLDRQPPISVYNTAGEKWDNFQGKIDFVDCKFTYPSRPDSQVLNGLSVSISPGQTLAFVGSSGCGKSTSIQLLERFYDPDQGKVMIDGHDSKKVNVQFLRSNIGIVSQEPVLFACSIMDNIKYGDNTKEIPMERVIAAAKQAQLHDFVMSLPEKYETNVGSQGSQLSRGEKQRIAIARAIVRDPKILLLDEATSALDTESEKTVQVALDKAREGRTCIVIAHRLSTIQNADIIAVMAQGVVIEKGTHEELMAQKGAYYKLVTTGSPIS
Sequence of Early activation antigen CD69 (Q07108 whole entry): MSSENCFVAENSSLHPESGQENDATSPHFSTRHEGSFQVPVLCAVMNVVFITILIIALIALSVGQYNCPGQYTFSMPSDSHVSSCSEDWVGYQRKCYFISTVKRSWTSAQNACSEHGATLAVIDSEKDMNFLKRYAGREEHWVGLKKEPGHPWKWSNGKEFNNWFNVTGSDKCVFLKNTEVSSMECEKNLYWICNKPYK

In the case of `Cn1cc(Nc2nccc(-c3ccc4c(c3)CN(C3COC3)CC[C@H]4NC(=O)c3cn(C(C)(C)C)nn3)n2)cn1` [BIIB-091], the Drug metabolism (Liver [1]) is reported as “Metabolite_Notdetected”, the solubility kinetic [2] is reported as > 50 µg/mL and the fraction unbound at 2 µM [3] is reported as 0.26. The logD [4] was 2.2, the QH [5] was 22% and the QH [6] was 33%. For the same compound, the Kd (Aurora kinase A) was 660 nM, the Kd [7] was 240 nM and the Kd [8] was 200 nM. It also gave a Kd [9] of 420 nM, a Kd [10] of 240 nM and a QH [11] of 44%. The Vdss [12] was 0.4 L/kg, the Vdss [13] was 0.7 L/kg and the IC50 [14] was > 25000 nM. For the same compound, the Activity [15] was “Non-Toxic”, the Activity [16] was “Non-Toxic” and the IC50 [17] was > 25000 nM. The Activity [18] was “Non-Toxic”, the Activity [19] was “Non-Toxic” and the Activity (Cynomolgus monkey [20]) was “Non-Toxic”. The Activity (Cynomolgus monkey [21]) was “Non-Toxic”, the Activity (Cynomolgus monkey [22]) was “Non-Toxic” and the pKa [23] was 2.8. The IC50 [24] was 71 nM, the IC50 (CD63 antigen) was 82 nM and the inhibition [25] was “inactive”. For the same compound, the Activity [26] was 88%, the Activity [27] was 77% and the Activity [28] was 59%. The Activity [29] was 59%, the Papp A→B [30] was 1.78 ×10⁻⁶ cm/s and the NOAEL at 672 h [31] was 500 mg/kg. The Papp B→A [32] was 37.6 ×10⁻⁶ cm/s, the “inhibition (INH)” value (Bile salt export pump) was “Not Active” and the “inhibition (INH)” value [33] was “Not Active”. The fraction unbound [34] was 0.26, the fraction unbound [35] was 0.19 and the “inhibition (INH)” value (Cytochrome P450 3A4) was “Not Active”. For the same compound, the “inhibition (INH)” value (Cytochrome P450 2D6) was “Not Active”, the “inhibition (INH)” value (Cytochrome P450 2C19) was “Not Active” and the “inhibition (INH)” value (Cytochrome P450 1A2) was “Not Active”. The fraction unbound [36] was 0.1, the NOAEL at 672 h [37] was 250 mg/kg and the Drug metabolism (Liver [38]) was “Metabolite_Notdetected”. The Drug metabolism (Liver [39]) was “Metabolite_Notdetected”, the Drug metabolism [40] was “Metabolite_Notdetected” and the Drug metabolism [41] was “Metabolite_Notdetected”. For the same compound, the Drug metabolism [42] was “Metabolite_Notdetected”.
